± gives the standard deviation of the averaged measurements.
What was measured:
Assay in all cases: level (log10 ratio to DMSO vehicle control); higher = higher biomarker level / cell amount than vehicle control
[1] = compound: O=S(=O)(O)CCC(F)(F)C(F)(F)C(F)(F)C(F)(F)C(F)(F)C(F)(F)C(F)(F)C(F)(F)F [8:2 Fluorotelomer sulfonic acid] (in DMSO)
Method: (§1)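 BioMAP Diversity Plus panel of 12 human primary cell co-culture systems (3C, 4H, LPS, SAg, BT, BF4T, BE3C, CASM3C, HDF3CGF, KF3CT, MyoF, Mphg). Compounds were added 1 h before stimulation and left for 24 h (MyoF 48 h; BT 72 h for soluble read-outs or 6 d for IgG). Biomarkers were read by ELISA, cytotoxicity by SRB, PBMC viability and proliferation by Alamar Blue. Each well value was divided by the mean of 8 DMSO control wells on the same plate and log10 transformed; duplicate blinded samples were tested at 4 concentrations.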

[2] = compound: OCC(F)(F)C(F)(F)C(F)(F)C(F)(F)C(F)(F)C(F)(F)CO [1H,1H,8H,8H-Perfluorooctane-1,8-diol] (in DMSO)
Method: as §1

[3] = compound: O=C(O)C=C(C(F)(F)F)C(F)(F)F [3,3-Bis(trifluoromethyl)-2-propenoic acid] (in DMSO)
Method: as §1

[4] = compound: O=C(O)C(F)(F)C(F)(F)C(F)(F)C(F)(F)C(F)(F)C(F)(F)C(F)(F)C(F)(F)C(F)(F)C(F)(F)F [Perfluoroundecanoic acid] (in DMSO); details: 6700 nM
Method: as §1

[5] = compound: CCOC(=O)CC(=O)C(F)(F)C(F)(F)F [Ethyl pentafluoropropionyl acetate] (in DMSO)
Method: as §1

[6] = compound: OCC(F)(F)C(F)(F)C(F)(F)C(F)F [1H,1H,5H-Perfluoropentanol] (in DMSO)
Method: as §1

[7] = compound: O=C(O)CCC(F)(C(F)(F)F)C(F)(F)F [4,4-bis(Trifluoromethyl)-4-fluoropropanoic acid] (in DMSO)
Method: as §1

Test System	level (log10) ([1]; 6700 nM)	level (log10) ([1]; 20000 nM)	level (log10) ([1]; 60000 nM)	level (log10) ([2]; 6700 nM)	level (log10) ([2]; 20000 nM)	level (log10) ([2]; 60000 nM)	level (log10) ([3]; 6700 nM)	level (log10) ([3]; 20000 nM)	level (log10) ([3]; 60000 nM)	level (log10) [4]	level (log10) ([5]; 6700 nM)	level (log10) ([5]; 20000 nM)	level (log10) ([5]; 60000 nM)	level (log10) ([6]; 6700 nM)	level (log10) ([6]; 20000 nM)	level (log10) ([6]; 60000 nM)	level (log10) ([7]; 6700 nM)	level (log10) ([7]; 20000 nM)	level (log10) ([7]; 60000 nM)
MyoF:CXCL8/IL-8	-0.0085 ± 0.03	-0.0885 ± 0.046	-0.157 ± 0.016	0 ± 0.0085	0.004 ± 0.025	0 ± 0.034	0.0915 ± 0.00071	0.107 ± 0.015	0.154 ± 0.016	0.0245 ± 0.0092	-0.007 ± 0.018	-0.0025 ± 0.021	0.0105 ± 0.029	-0.018 ± 0.076	0.0485 ± 0.064	0.07 ± 0.13	0.0035 ± 0.0092	0.0085 ± 0.0078	0.009 ± 0.0099
3C:CD62E/E-Selectin	0.013 ± 0.025	0.0385 ± 0.0021	0.0715 ± 0.0078	0.0005 ± 0.013	-0.007 ± 0.0085	0.015 ± 0.013	-0.044 ± 0.0057	-0.081	-0.123 ± 0.026	-0.0135 ± 0.04	-0.0035 ± 0.013	-0.007 ± 0.023	0.011 ± 0.0071	-0.018 ± 0.018	-0.015	0.008 ± 0.0014	-0.0065 ± 0.016	-0.0165 ± 0.016	-0.0085 ± 0.012
BE3C:tPA	0.0755 ± 0.021	0.0535 ± 0.0064	-0.021 ± 0.0099	0.0105 ± 0.016	0.01 ± 0.011	0.03 ± 0.0057	-0.16 ± 0.041	-0.166 ± 0.0042	-0.179 ± 0.073	0.003 ± 0.0028	-0.019 ± 0.041	-0.034 ± 0.038	-0.028 ± 0.035	-0.019 ± 0.0042	-0.022 ± 0.017	-0.0035 ± 0.011	0.02 ± 0.075	-0.001 ± 0.044	-0.025 ± 0.027
HDF3CGF:TIMP-2	-0.003 ± 0.016	-0.023 ± 0.016	-0.0475 ± 0.022	0.003 ± 0.0014	0.0255 ± 0.0035	0.0145 ± 0.00071	-0.0175 ± 0.013	-0.0595 ± 0.028	-0.082 ± 0.03	0.009 ± 0.0042	-0.05 ± 0.044	-0.012 ± 0.024	-0.069 ± 0.011	-0.0525 ± 0.086	-0.0265 ± 0.067	-0.0175 ± 0.087	-0.042 ± 0.052	-0.041 ± 0.045	-0.0265 ± 0.013
CASM3C:HLA-DR	0.0155 ± 0.023	-0.009 ± 0.024	-0.015 ± 0.017	-0.0005 ± 0.018	-0.026 ± 0.016	-0.014 ± 0.014	-0.121 ± 0.0028	-0.167 ± 0.0085	-0.181 ± 0.067	-0.007 ± 0.017	-0.0125 ± 0.0064	-0.0185 ± 0.015	-0.015 ± 0.014	0.016 ± 0.0028	-0.014 ± 0.064	0.035 ± 0.025	-0.035 ± 0.0014	-0.0285 ± 0.012	0.0035 ± 0.012
CASM3C:PAI-I	-0.0015 ± 0.019	0.012 ± 0.018	0.0095 ± 0.012	-0.006 ± 0.0099	-0.006	0.012 ± 0.0042	-0.0115 ± 0.012	-0.019 ± 0.0057	-0.0145 ± 0.012	0.005 ± 0.0057	0.002 ± 0.0057	0.0055 ± 0.012	0.007 ± 0.0014	-0.008 ± 0.0028	-0.0015 ± 0.0035	0.005 ± 0.0071	0.0075 ± 0.025	0.007 ± 0.013	0.0035 ± 0.0021
BE3C:PAI-I	0.044 ± 0.014	0.126 ± 0.026	0.0955 ± 0.011	0.025 ± 0.024	0.031 ± 0.0099	0.0325 ± 0.011	-0.043 ± 0.0042	-0.0315 ± 0.005	-0.0085 ± 0.032	-0.292 ± 0.023	0.008 ± 0.0014	-0.006 ± 0.014	0.0045 ± 0.018	-0.043 ± 0.021	0.023 ± 0.048	0.0495 ± 0.047	0.009 ± 0.018	-0.004 ± 0.018	0.006 ± 0.061
CASM3C:Serum Amyloid A	0.0195 ± 0.0064	0.0475 ± 0.025	0.096 ± 0.0042	-0.013 ± 0.038	-0.0215 ± 0.033	-0.022 ± 0.035	-0.013 ± 0.021	-0.0185 ± 0.0092	-0.005 ± 0.038	0.014 ± 0.016	0.0005 ± 0.0035	-0.012 ± 0.0014	0.0155 ± 0.029	-0.077 ± 0.014	-0.058 ± 0.044	-0.0135 ± 0.049	-0.008 ± 0.013	0.064 ± 0.059	0.159 ± 0.0057
KF3CT:PAI-I	-0.0065 ± 0.022	-0.029 ± 0.014	-0.0255 ± 0.019	-0.004 ± 0.0085	-0.008 ± 0.0071	-0.0155 ± 0.0021	0.004 ± 0.013	0.002 ± 0.013	-0.0055 ± 0.018	-0.11 ± 0.013	-0.02 ± 0.023	-0.01 ± 0.035	-0.0055 ± 0.026	0.0105 ± 0.098	0.062 ± 0.035	-0.0045 ± 0.011	-0.0035 ± 0.00071	-0.0165 ± 0.0092	0.003 ± 0.0071
MyoF:bFGF	0.0045 ± 0.012	0.006 ± 0.023	0.0265 ± 0.0021	0.009 ± 0.014	0.0145 ± 0.0021	0.014 ± 0.014	0.0125 ± 0.0064	0.0075 ± 0.019	0.0325 ± 0.019	0.0035 ± 0.0092	-0.0045 ± 0.0064	0.0015 ± 0.0021	0.0135 ± 0.012	-0.02 ± 0.016	0.0115 ± 0.026	0.0135 ± 0.012	0.005 ± 0.025	0.002 ± 0.023	0.0155 ± 0.015
HDF3CGF:Collagen I	0.007 ± 0.038	0.0195 ± 0.049	-0.0455 ± 0.17	0.0025 ± 0.012	0.025 ± 0.016	0.0085 ± 0.035	-0.031 ± 0.0028	-0.041 ± 0.02	-0.03 ± 0.038	-0.0645 ± 0.03	-0.0205 ± 0.021	-0.003 ± 0.051	-0.0355 ± 0.0092	-0.0375 ± 0.039	-0.0305 ± 0.037	0.0585 ± 0.021	-0.0105 ± 0.025	-0.0025 ± 0.028	0.0195 ± 0.026
BE3C:SRB	-0.007 ± 0.0071	-0.017	-0.025 ± 0.0085	-0.003 ± 0.0028	-0.0025 ± 0.0021	-0.0015 ± 0.0035	-0.005 ± 0.0042	-0.0025 ± 0.0035	0.01 ± 0.0057	-0.0555 ± 0.012	-0.002 ± 0.0042	-0.0015 ± 0.0035	0.002 ± 0.0071	0 ± 0.0014	0.0025 ± 0.0092	0.007 ± 0.011	0.003 ± 0.0014	-0.001 ± 0.0057	0.018 ± 0.0085
3C:CD54/ICAM-1	-0.008 ± 0.0099	0.003 ± 0.013	0.034 ± 0.0042	0.0045 ± 0.0035	0.0025 ± 0.019	0.0015 ± 0.022	-0.002 ± 0.0071	-0.018 ± 0.0071	-0.0095 ± 0.018	-0.009 ± 0.0042	-0.0015 ± 0.012	-0.01 ± 0.016	0.0025 ± 0.022	-0.028 ± 0.0085	-0.003 ± 0.0099	0.0125 ± 0.023	-0.01 ± 0.017	-0.022 ± 0.024	-0.0085 ± 0.011
lMphg:sIL-10	-0.078 ± 0.024	-0.216 ± 0.0057	-0.6535 ± 0.0064	-0.175 ± 0.042	-0.17 ± 0.037	-0.216 ± 0.0057	-0.2 ± 0.0071	-0.325 ± 0.029	-0.547 ± 0.028	0.0325 ± 0.016	-0.0405 ± 0.012	-0.0435 ± 0.035	-0.0305 ± 0.022	-0.0455 ± 0.069	-0.012 ± 0.025	-0.014 ± 0.027	-0.0325 ± 0.005	-0.062 ± 0.075	-0.003 ± 0.12
lMphg:CD62E/E-Selectin	0.0165 ± 0.0092	0.048 ± 0.0042	0.103 ± 0.0057	-0.0195 ± 0.028	-0.004 ± 0.013	-0.0075 ± 0.0064	-0.049 ± 0.0085	-0.068 ± 0.02	-0.14 ± 0.034	-0.004 ± 0.041	-0.036 ± 0.02	-0.0245 ± 0.012	0.0115 ± 0.025	-0.006 ± 0.017	0.002 ± 0.014	0.02 ± 0.016	-0.02 ± 0.038	-0.0155 ± 0.035	-0.0285 ± 0.06

Reference: the supplement of paper PMC10331698
